biological target: T1, KRAS G12C (Homo sapiens, UniProt P01116, G12C); test: phospho-ERK HTRF assay in Ras Initiative (RI) KRAS G12C cells; type: cell-based; settings: phospho-ERK1/2 HTRF, 11-point dose response from 2,500 nM, treatment for either 4 hours or 16 hours, read-out: pERK (RI)
T1 construct: expressed in transfected cells; host or cells: Ras Initiative (RI) KRAS G12C cells
Method: Inhibition of KRAS G12C-Mediates Phospho-ERK1/2 Inhibition by Compounds of Formula I
This Example illustrates that various compounds of the present disclosure inhibit KRAS G12C thereby mediating the downstream inhibition of phospho-ERK1/2.
KRAS G12C mutant cell lines, NCI H358 (ATCC, CRL-5807), and Ras Initiative (R1) KRAS G12C were cultured according to published protocols and maintained at 37° C. in 5% CO2. The phospho-ERK HTRF assay was executed following provider's protocol (CisBio #64AERPEH). NCI-H358 or RI KRAS G12C cells were plated at a density of 50,000 cells per well in a 96-well plate (Corning #3903) in respective medias (for NCI-H358, RPMI+10% FBS+1% Pen/Strep, and for RI KRAS G12C, DMEM+10% FBS+1% Pen/Strep+4 ug/ml Blasticidin) and maintained at 37° C. in 5% CO2. Cells were allowed to adhere overnight and treated the following day with a Tecan D300e Digital Dispenser (Tecan Group Ltd., Switzerland) using an 11-point dose response starting at 2,500 nM of exemplified compounds followed by sequential 1:3 dilutions for either 4 hours or 16 hours. Following compound treatment, the cells were washed once with ice-cold PBS. Cells were lysed by adding 50 μl of lysis buffer (1×) supplemented with 1× Pierce Halt Protease and Phosphatase inhibitor and incubated for 30 minutes at 4° C. with shaking. After lysis, 16 μL of cell lysate from the 96-well cell-culture plate was transferred to a 384-well plate (Perkin Elmer #6007290). The premixed antibody solution was prepared by mixing (vol/vol) advanced phospho-ERK1/2 d2 antibody and advanced phospho-ERK1/2 Eu Cryptate antibody. The premixed antibody solution ([…]) was added to the detection plate containing cell lysate. The detection plate was incubated overnight at 4° C., the HTRF signal was read the next day by using either a Spectramax M5 or Spectramax i3 microplate reader (Molecular Devices, San Jose, CA, USA), and data was processed according to manufacturer's protocol.
Compounds prepared according to the preceding procedures and characterized for inhibition of p-ERK according to the protocol provided herein are summarized in Table 3: […]

T1 sequence (P01116 1-188 isoform P01116-2 G12C): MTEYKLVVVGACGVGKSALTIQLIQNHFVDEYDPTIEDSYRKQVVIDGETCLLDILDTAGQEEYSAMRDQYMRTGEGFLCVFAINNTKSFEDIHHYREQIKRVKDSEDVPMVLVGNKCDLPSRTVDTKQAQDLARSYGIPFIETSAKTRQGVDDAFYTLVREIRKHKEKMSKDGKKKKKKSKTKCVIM

Row | IC50 | Structure (SMILES)
1 | 0.5 to 2 nM | C=CC(=O)N1[C@H](C)CN(c2nc(=O)n3c4c(c(-c5cc(Cl)c(F)cc5F)c(C(F)(F)F)cc24)SC[C@@H](c2ccncc2)C3)C[C@@H]1C (atropisomer, axis not shown) [Example 100B, (3S)-8-((3S,5R)-4-acryloyl-3,5-dimethylpiperazin-1-yl)-11-(5-chloro-2,4-difluorophenyl)-3-(pyridin-4-yl)-10-(trifluoromethyl)-3,4-dihydro-2H,6H-[1,4]thiazepino[2,3,4-ij]quinazolin-6-one]
2 | 0.5 to 2 nM | C=CC(=O)N1[C@H](C)CN(c2nc(=O)n3c4c(c(-c5cc(Cl)c(F)cc5F)c(C(F)(F)F)cc24)SC[C@@H](c2cccnc2)C3)C[C@@H]1C (atropisomer, axis not shown) [Example 104A, (3S,11R)-8-((3S,5R)-4-acryloyl-3,5-dimethylpiperazin-1-yl)-11-(5-chloro-2,4-difluorophenyl)-3-(pyridin-3-yl)-10-(trifluoromethyl)-3,4-dihydro-2H,6H-[1,4]thiazepino[2,3,4-ij]quinazolin-6-one]
3 | 0.5 to 2 nM | C=CC(=O)N1[C@H](C)CN(c2nc(=O)n3c4c(c(-c5cc(Br)c(F)cc5F)c(C(F)(F)F)cc24)SC[C@@H](c2cccnc2)C3)C[C@@H]1C (atropisomer, axis not shown) [Example 108A, (3S,11R)-8-((3S,5R)-4-acryloyl-3,5-dimethylpiperazin-1-yl)-11-(5-bromo-2,4-difluorophenyl)-3-(pyridin-3-yl)-10-(trifluoromethyl)-3,4-dihydro-2H,6H-[1,4]thiazepino[2,3,4-ij]quinazolin-6-one]
4 | > 250 nM | C=CC(=O)N1[C@H](C)CN(c2nc(=O)n3c4c(c(-c5ccc(F)cc5F)c(C(F)(F)F)cc24)SC[C@H](c2ccc(F)cc2)C3)C[C@@H]1C (atropisomer, axis not shown) [Example 118]
5 | 2 to 20 nM | C=CC(=O)N1[C@H](C)CN(c2nc(=O)n3c4c(c(-c5cc(Cl)c(F)cc5F)c(C(F)(F)F)cc24)SC[C@@H](c2ccncc2)C3)C[C@@H]1C (single isomer, unassigned) [Example 100A]
6 | 2 to 20 nM | C=CC(=O)N1[C@H](C)CN(c2nc(=O)n3c4c(c(-c5cc(Br)c(F)cc5F)c(C(F)(F)F)cc24)SC[C@@H](c2ccccn2)C3)C[C@@H]1C (single isomer, unassigned) [Example 107A]
7 | 0.5 to 2 nM | C=CC(=O)N1[C@H](C)CN(c2nc(=O)n3c4c(c(-c5cc(Br)c(F)cc5F)c(C(F)(F)F)cc24)SC[C@@H](c2ccccn2)C3)C[C@@H]1C (single isomer, unassigned) [Example 107B]
8 | 2 to 20 nM | C=CC(=O)N1[C@H](C)CN(c2nc(=O)n3c4c(c(-c5cc(Cl)c(F)cc5F)c(C(F)(F)F)cc24)SC[C@@H](c2ccncc2F)C3)C[C@@H]1C (single isomer, unassigned) [Example 112A]
9 | 0.5 to 2 nM | C=CC(=O)N1[C@H](C)CN(c2nc(=O)n3c4c(c(-c5cc(Cl)c(F)cc5F)c(C(F)(F)F)cc24)SC[C@@H](c2ccncc2F)C3)C[C@@H]1C (single isomer, unassigned) [Example 112B]
10 | 0.5 to 2 nM | C=CC(=O)N1[C@H](C)CN(c2nc(=O)n3c4c(c(-c5cc(Br)c(F)cc5F)c(C(F)(F)F)cc24)SC[C@@H](c2ccncc2)C3)C[C@@H]1C [Example 102, (3S)-8-((3S,5R)-4-acryloyl-3,5-dimethylpiperazin-1-yl)-11-(5-bromo-2,4-difluorophenyl)-3-(pyridin-4-yl)-10-(trifluoromethyl)-3,4-dihydro-2H,6H-[1,4]thiazepino[2,3,4-ij]quinazolin-6-one]
11 | > 250 nM | C=CC(=O)N1[C@H](C)CN(c2nc(=O)n3c4c(c(-c5cc(Br)c(F)cc5F)c(C(F)(F)F)cc24)SC[C@H](c2ccccn2)C3)C[C@@H]1C [Example 103]
12 | 2 to 20 nM | C=CC(=O)N1[C@H](C)CN(c2nc(=O)n3c4c(c(-c5cc(Cl)c(F)cc5F)c(C(F)(F)F)cc24)SC[C@@H](c2cccnc2)C3)C[C@@H]1C [Example 104B, (3S,11S)-8-((3S,5R)-4-acryloyl-3,5-dimethylpiperazin-1-yl)-11-(5-chloro-2,4-difluorophenyl)-3-(pyridin-3-yl)-10-(trifluoromethyl)-3,4-dihydro-2H,6H-[1,4]thiazepino[2,3,4-ij]quinazolin-6-one]
13 | 0.5 to 2 nM | C=CC(=O)N1[C@H](C)CN(c2nc(=O)n3c4c(c(-c5ccc(F)cc5)c(C(F)(F)F)cc24)SC[C@@H](c2ccccn2)C3)C[C@@H]1C [Example 106, (R)-8-((3S,5R)-4-acryloyl-3,5-dimethylpiperazin-1-yl)-11-(4-fluorophenyl)-3-(pyridin-2-yl)-10-(trifluoromethyl)-3,4-dihydro-2H,6H-[1,4]thiazepino[2,3,4-ij]quinazolin-6-one]
14 | 2 to 20 nM | C=CC(=O)N1[C@H](C)CN(c2nc(=O)n3c4c(c(-c5cc(Br)c(F)cc5F)c(C(F)(F)F)cc24)SC[C@@H](c2cccnc2)C3)C[C@@H]1C [Example 108B, (3S,11S)-8-((3S,5R)-4-acryloyl-3,5-dimethylpiperazin-1-yl)-11-(5-bromo-2,4-difluorophenyl)-3-(pyridin-3-yl)-10-(trifluoromethyl)-3,4-dihydro-2H,6H-[1,4]thiazepino[2,3,4-ij]quinazolin-6-one]
15 | 2 to 20 nM | C=CC(=O)N1[C@H](C)CN(c2nc(=O)n3c4c(c(-c5cc(Cl)c(F)cc5F)c(C(F)(F)F)cc24)SC[C@@H](c2cncc(F)c2)C3)C[C@@H]1C [Example 109, (3S)-8-((3S,5R)-4-acryloyl-3,5-dimethylpiperazin-1-yl)-11-(5-chloro-2,4-difluorophenyl)-3-(5-fluoropyridin-3-yl)-10-(trifluoromethyl)-3,4-dihydro-2H,6H-[1,4]thiazepino[2,3,4-ij]quinazolin-6-one]
16 | 20 to 250 nM | C=CC(=O)N1[C@H](C)CN(c2nc(=O)n3c4c(c(-c5cc(Cl)c(F)cc5F)c(C(F)(F)F)cc24)SC[C@H](c2ccncc2F)C3)C[C@@H]1C [Example 111]
17 | 0.5 to 2 nM | C=CC(=O)N1[C@H](C)CN(c2nc(=O)n3c4c(c(-c5ccc(F)cc5)c(C(F)(F)F)cc24)SC[C@@H](c2ccncc2)C3)C[C@@H]1C [Example 113, (S)-8-((3S,5R)-4-acryloyl-3,5-dimethylpiperazin-1-yl)-11-(4-fluorophenyl)-3-(pyridin-4-yl)-10-(trifluoromethyl)-3,4-dihydro-2H,6H-[1,4]thiazepino[2,3,4-ij]quinazolin-6-one]
18 | 0.5 to 2 nM | C=CC(=O)N1[C@H](C)CN(c2nc(=O)n3c4c(c(-c5ccc(F)cc5)c(C(F)(F)F)cc24)SC[C@@H](c2ccncc2F)C3)C[C@@H]1C [Example 114, (S)-8-((3S,5R)-4-acryloyl-3,5-dimethylpiperazin-1-yl)-11-(4-fluorophenyl)-3-(3-fluoropyridin-4-yl)-10-(trifluoromethyl)-3,4-dihydro-2H,6H-[1,4]thiazepino[2,3,4-ij]quinazolin-6-one]
19 | 20 to 250 nM | C=CC(=O)N1[C@H](C)CN(c2nc(=O)n3c4c(c(-c5ccc(F)cc5)c(C(F)(F)F)cc24)SCC(c2ccc(F)cc2)C3)C[C@@H]1C (stereo partly drawn) [Example 115, 8-((3S,5R)-4-acryloyl-3,5-dimethylpiperazin-1-yl)-3,11-bis(4-fluorophenyl)-10-(trifluoromethyl)-3,4-dihydro-2H,6H-[1,4]thiazepino[2,3,4-ij]quinazolin-6-one]
20 | 2 to 20 nM | C=CC(=O)N1[C@H](C)CN(c2nc(=O)n3c4c(c(-c5ccc(F)cc5)c(C(F)(F)F)cc24)SCC(c2ccc(F)cc2)C3)C[C@@H]1C (stereo partly shown) [Example 116]
21 | 20 to 250 nM | C=CC(=O)N1[C@H](C)CN(c2nc(=O)n3c4c(c(-c5ccc(F)cc5)c(C(F)(F)F)cc24)SC[C@H](c2cccs2)C3)C[C@@H]1C [Example 124, (R)-8-((3S,5R)-4-acryloyl-3,5-dimethylpiperazin-1-yl)-11-(4-fluorophenyl)-3-(thiophen-2-yl)-10-(trifluoromethyl)-3,4-dihydro-2H,6H-[1,4]thiazepino[2,3,4-ij]quinazolin-6-one]
22 | 2 to 20 nM | C=CC(=O)N1[C@H](C)CN(c2nc(=O)n3c4c(c(-c5ccc(F)cc5)c(C(F)(F)F)cc24)SC[C@@H](c2cccs2)C3)C[C@@H]1C [Example 125, (S)-8-((3S,5R)-4-acryloyl-3,5-dimethylpiperazin-1-yl)-11-(4-fluorophenyl)-3-(thiophen-2-yl)-10-(trifluoromethyl)-3,4-dihydro-2H,6H-[1,4]thiazepino[2,3,4-ij]quinazolin-6-one]

From patent US20250313577A1, “TRICYCLIC PYRIDONES AND PYRIMIDONES” (ERASCA, INC, priority 2022, published 2025)
